# Results reported in PubChem BioAssay (NCI).
#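 Growth conditions: 96-well plates. Treatment: test compound, 48 hours, 5 concentrations. Analysis: linear interpolation between bracketing concentrations; unreached endpoints set to highest concentration. GI50 = concentration required for 50% inhibition of growth. TGI marks complete inhibition of growth.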
# Legend:
# Assay in all cases: NCI tumour cell line growth inhibition, 48 h
# [1] = system: SN12C renal
# [2] = system: NCI-H226 lung
# [3] = system: SW-620 colon
# [4] = system: HCT-116 colon
# [5] = system: SF-295 CNS
# [6] = system: EKVX NSCLC
# [7] = system: U251 CNS
# [8] = system: NCI-H460 lung
# [9] = system: SK-MEL-5 melanoma
# [10] = system: SK-MEL-28 melanoma
Structure (SMILES),GI50 [1] [µM],TGI [1] [µM],GI50 [2] [µM],TGI [2] [µM],GI50 [3] [µM],TGI [3] [µM],GI50 [4] [µM],TGI [4] [µM],GI50 [5] [µM],TGI [5] [µM],GI50 [6] [µM],TGI [6] [µM],GI50 [7] [µM],TGI [7] [µM],GI50 [8] [µM],TGI [8] [µM],GI50 [9] [µM],TGI [9] [µM],GI50 [10] [µM],TGI [10] [µM]
Cc1cc(O)c(C2=NN(c3ccc(S(N)(=O)=O)cc3)C(/C=C/c3ccccc3)C2)cc1Cl (stereo not given),11.1,25.6,5.21,19.2,11.7,31.3,2.4,14.6,2.36,11.9,14.2,35.3,3.79,15.6,4.03,17,4.23,16.4,10.9,23.8
CC(=O)NC(C=O)C(O[C@H](C)C(=O)NC(C)C(=O)NC(CCC(N)=O)C(=O)OCc1ccccc1)C(O)C(O)COC(=O)CCNc1c2ccccc2nc2cccc([N+](=O)[O-])c12 (stereo not given in full),,5.62,,6.89,,7.44,,2.69,,38.5,,22.3,,7.14,,3.44,,> 100,,11.6
O=C(O)c1c(Br)c(Br)c(Br)c(Br)c1C1c2ccc(O)cc2Oc2cc(O)ccc21,,> 100,,> 100,,> 100,,> 100,,> 100,,> 100,,> 100,,> 100,,> 100,,> 100
C[C@@H](CO)NC(=O)c1cc(-c2ccc(Cl)cc2)nn(-c2cnn(C)c2)c1=O,19.3,> 100,16.4,35.1,22.9,> 100,19.1,> 100,16.4,50.7,26,> 100,42.9,> 100,30,> 100,12.7,26,28.4,82.1
CCC1(CN(C)C)CC/C(=C\c2ccc(OC)c(OC)c2)C1=O (stereo not given),,> 100,,> 100,,> 100,,> 100,,> 100,,> 100,,> 100,,> 100,,> 100,,> 100
COc1c(N2CCN(CN3C(=O)C(=O)c4cc(Cl)ccc43)C(C)C2)c(F)cc2c(=O)c(C(=O)O)cn(C3CC3)c12 (stereo not given),48.2,> 100,71,> 100,14.2,75.8,29.8,> 100,91.7,> 100,13.7,> 100,41.3,> 100,30.6,> 100,15.6,34.8,97.5,> 100
CC(=O)c1ccc(NC(=O)C(=O)C(C#N)CC(C)(C)C=O)cc1 (stereo not given),,> 100,,> 100,,> 100,,> 100,,> 100,,> 100,,> 100,,> 100,,> 100,,> 100
O=C1CC/C(=C/COc2cc(=O)oc3ccccc23)O1,14.7,36,17.9,73.5,4.37,18.2,6.95,19.7,14.8,40.6,17.9,40.1,11,23.4,17.5,47.2,16.8,33.1,14,28.5
O=C(CC1C=Cc2ccccc2N1C(=O)c1ccccc1)c1ccccc1 (stereo not given),,45.9,,99.9,,> 100,,45.6,,78.1,,47.4,,65.1,,> 100,,30.2,,> 100
CN(CCCCCl)P(=O)(OCc1ccc([N+](=O)[O-])o1)OCC1OC(n2cnc([N+](=O)[O-])c2N)C(O)C1O (stereo not given),> 100,> 100,> 100,> 100,> 100,> 100,> 100,> 100,> 100,> 100,> 100,> 100,> 100,> 100,> 100,> 100,37,> 100,> 100,> 100
O=C(CCCN1CCC(C(O)c2ccc(F)cc2)CC1)c1ccc(F)cc1 (stereo not given),,141,,111,,123,,116,,118,,136,,106,,115,,99.3,,118
C=C(C(=C)P(=S)(C(C)C)C(C)C)P(=S)(C(C)C)C(C)C,,> 100,,> 100,,> 100,,> 100,,> 100,,> 100,,> 100,,> 100,,> 100,,> 100
CC(=O)Nc1n[n+]([O-])c2cc(C)ccc2[n+]1[O-],,18.8,,27.8,,17.5,,13.5,,12.6,,16.8,,14.2,,2.14,,3.87,,44.2
Cc1ccc(-n2nnnc2-c2cnc(N3CCOCC3)nc2-c2cccc(C(F)(F)F)c2)cc1,2.53,> 13.9,1.51,10.8,1.93,> 25.1,1.35,5.08,1.1,3.65,3.93,> 50,3.52,> 10.6,2,> 22.4,0.275,3.42,14.4,> 50
CC(=O)O[C@H]1CC[C@@]2(C)C(=C/C(=N/OCCN3CCCC3)[C@H]3[C@@H]4CC[C@H](OC(C)=O)[C@@]4(C)CC[C@@H]32)C1,> 100,> 100,> 100,> 100,24.1,59.8,27.8,> 100,26.1,66.1,> 100,> 100,67.1,> 100,24.8,52.1,17.3,31.9,31.2,64.1
